These results are taken from ChEMBL document CHEMBL3244346, “Synthesis of spiro[isobenzofuran-1(3H),4'-piperidines] as potential central nervous system agents. 4. Central nervous system depressants” (J Med Chem, 1978).

The test system of series [1] is Rattus norvegicus. Put plainly: Neuroleptic activity in ip dosed Long-Evans rat assessed as increase in escape failure. The format is functional.
For series [2], the system named is Rattus norvegicus. Put plainly: Non-specific toxicity in ip dosed Wistar rat assessed as inhibition of amphetamine-induced circling administered 60 mins prior to amphetamine challenge. The series is classed as organism-based. Particulars: in vivo, 1 h.
For series [3], the system named is Rattus norvegicus. In words: Neuroleptic activity in ip dosed Long-Evans rat assessed as inhibition of pole-climb avoidance. The format is functional.
Series [4] concerns Canis familiaris. Put plainly: Non-specific toxicity in Beagle dog assessed as inhibition of apomorphine hydrochloride-induced emesis at 0.5 mg/kg, po. The series is classed as organism-based. The arrangement: dose 0.5 mg/kg, route oral. Particulars: Canis lupus familiaris.
The subject of series [5] is Rattus norvegicus. In words: Neuroleptic activity in po dosed Sprague-Dawley rat assessed as inhibition of Sidman avoidance measured for 4 to 6 hrs. The series is classed as functional.
The test system of series [6] is Canis familiaris. In words: Ratio of compound ED50 to haloperidol ED50 for non-specific toxicity in po dosed Beagle dog assessed as inhibition of apomorphine hydrochloride-induced emesis. The format is organism-based, Canis lupus familiaris. Particulars: in vivo.
Series [7] has as its system Squirrel monkey. In words: Neuroleptic activity in squirrel monkey assessed as inhibition of Sidman avoidance at 10 mg/kg, po measured for 4 hrs. The series is classed as functional. Particulars: Saimiri sciureus, in Primates.
Series [8] concerns Rattus norvegicus. Put plainly: Neuroleptic activity in Sprague-Dawley rat assessed as inhibition of Sidman avoidance at 20 mg/kg, ip relative to control. The format is functional. Particulars: route intraperitoneal.
The test system of series [9] is Rattus norvegicus. In words: Non-specific toxicity in ip dosed Wistar rat assessed as inhibition of d-amphetamine sulfate-induced stereotypy administered 1 hr prior to d-amphetamine sulfate challenge measured after 55 to 65 mins. Particulars: in vivo. The format is organism-based.
The test system of series [10] is Canis familiaris. In words: Non-specific toxicity in po dosed Beagle dog assessed as inhibition of apomorphine hydrochloride-induced emesis. Particulars: in vivo. The series is classed as organism-based, Canis lupus familiaris.
Series [11] deals with Rattus norvegicus. Put plainly: Neuroleptic activity in ip dosed Sprague-Dawley rat assessed as inhibition of Sidman avoidance measured for 4 to 6 hrs. The series is classed as functional.
Series [12] has as its system Rattus norvegicus. Put plainly: Neuroleptic activity in Long-Evans rat assessed as inhibition of pole-climb avoidance at 5 mg/kg, ip relative to control. Particulars: route intraperitoneal. The series is classed as functional.
Series [13] deals with Rattus norvegicus. Put plainly: Neuroleptic activity in po dosed Long-Evans rat assessed as increase in escape failure. The format is functional.
In series [14] the test system is Squirrel monkey. Put plainly: Neuroleptic activity in squirrel monkey assessed as inhibition of Sidman avoidance at 20 mg/kg, po measured for 4 hrs in presence of anticholinergic agent benztropine. The format is functional, organism-based. The settings on record: Saimiri sciureus. The arrangement: dose 20 mg/kg.
Series [15] concerns Squirrel monkey. Put plainly: Neuroleptic activity in squirrel monkey assessed as inhibition of Sidman avoidance at 5 mg/kg, po measured for 4 hrs. The format is functional. The settings on record: Saimiri sciureus, in Primates.
Series [16] concerns Squirrel monkey. In words: Neuroleptic activity in squirrel monkey assessed as inhibition of Sidman avoidance at 20 mg/kg, po measured for 4 hrs. The format is functional. The settings on record: Saimiri sciureus, in Primates.
In series [17] the test system is Rattus norvegicus. In words: Non-specific toxicity in Wistar rat assessed as inhibition of apomorphine hydrochloride-induced stereotypy at 25 mg/kg, sc administered 1 hr prior to apomorphine hydrochloride challenge measured after 5 to 20 mins. The series is classed as organism-based. The arrangement: dose 25 mg/kg, route subcutaneous. Particulars: in vivo.
Series [18] deals with Rattus norvegicus. In words: Neuroleptic activity in po dosed Long-Evans rat assessed as inhibition of pole-climb avoidance. The format is functional.
Series [19] has as its system Rattus norvegicus. Put plainly: Increase in amphetamine-induced circling in Wistar rat at 5 mg/kg, ip administered 60 mins prior to amphetamine challenge. The format is functional. Particulars: route intraperitoneal.
The subject of series [20] is Squirrel monkey. Put plainly: Neuroleptic activity in squirrel monkey assessed as inhibition of Sidman avoidance at 2.5 mg/kg, po measured for 4 hrs. The format is functional. Particulars: Saimiri sciureus, in Primates.
The subject of series [21] is Rattus norvegicus. Put plainly: Non-specific toxicity in sc dosed Wistar rat assessed as inhibition of apomorphine hydrochloride-induced stereotypy administered 1 hr prior to apomorphine hydrochloride challenge measured after 5 to 20 mins. The settings on record: in vivo. The format is organism-based.
For series [22], the system named is Squirrel monkey. Put plainly: Neuroleptic activity in squirrel monkey assessed as inhibition of Sidman avoidance at 0.75 mg/kg, po measured for 4 hrs. The series is classed as functional. The settings on record: Saimiri sciureus, in Primates.
For series [23], the species on record is Rattus norvegicus. In words: animal or person. The settings on record: Sprague-Dawley, po, read-out: INH.
Description: Neuroleptic activity in Sprague-Dawley rat assessed as inhibition of Sidman avoidance at 1.25 mg/kg, po relative to control
The subject of series [24] is Squirrel monkey. In words: Neuroleptic activity in squirrel monkey assessed as inhibition of Sidman avoidance at 1 mg/kg, po measured for 4 hrs. The format is functional. The settings on record: Saimiri sciureus, in Primates.

Calls of active or inactive are those of the source. The rule behind the calls is not given here.

A word on the ED50: it is the midpoint of the dose-response relation. In general, inhibition refers to the change of the read-out against control, counted positive when it falls.

For the compound `O=C(CCCN1CCC2(CC1)OC(c1ccc(F)cc1)c1ccc(F)cc12)c1ccc(F)cc1` (configuration not stated), the ED50 in the series with Rattus norvegicus [1] is more than 40 mg/kg; in the series on Rattus norvegicus [2], 9.7 mg/kg; in the series with Rattus norvegicus [3] it was 18.6 mg/kg; in the series with Rattus norvegicus [5], 2.2 mg/kg. Besides, the inhibition at 0.5 mg/kg with Canis familiaris [4] amounted to 50%. The “Ratio ED50” value in the series with Canis familiaris [6] is on record as 10.
Regarding `COc1ccc2c(c1)C1(CCN(CCCC(=O)c3ccc(F)cc3)CC1)OC2c1ccccc1` (configuration not stated), the ED50 in the series on Rattus norvegicus [5] is more than 10 mg/kg. Further, the inhibition in vivo at 10 mg/kg with Squirrel monkey [7] stood at 77%.
On to `CSc1ccc2c(c1)N(CCC1CCCCN1C)c1ccccc1S2` (configuration not stated) [THIORIDAZINE], for which the inhibition in vivo at 20 mg/kg with Rattus norvegicus [8] amounted to 15%. In addition, the ED50 is more than 60 mg/kg in the series on Rattus norvegicus [1], 13.3 mg/kg with Rattus norvegicus [2], 13.8 mg/kg in the series on Rattus norvegicus [3] and 15.8 mg/kg with Rattus norvegicus [9].
Take `O=C(CCCN1CCC2(CC1)OC(c1ccccc1)c1ccc(Cl)cc12)c1ccc(F)cc1` (configuration not stated): the values for the 50% effective dose (ED50) in the series with Rattus norvegicus [2], in the series on Canis familiaris [10] and in the series on Rattus norvegicus [11] were 3.5 mg/kg, 0.05 mg/kg and 2.3 mg/kg, respectively. Also, the inhibition in vivo at 5 mg/kg in the series with Rattus norvegicus [12] amounted to 47%.
For the compound `O=C(CCCN1CCC2(CC1)OC(c1ccc(F)cc1)c1ccccc12)c1ccc(F)cc1` (configuration not stated), the ED50 is 11.9 mg/kg with Rattus norvegicus [2]; 16.2 mg/kg with Rattus norvegicus [13]; more than 5 mg/kg in the series with Canis familiaris [10]; 11.8 mg/kg in the series with Rattus norvegicus [9]; 3.7 mg/kg in the series on Rattus norvegicus [5]; 4.3 mg/kg with Rattus norvegicus [18]. Further, the inhibition result in the series with Squirrel monkey [14] was “inactive”. Moreover, the inhibition in vivo at 5 mg/kg with Squirrel monkey [15] stood at 21%. Also, the inhibition in vivo at 20 mg/kg in the series with Squirrel monkey [16] came out at 90%. Also, the Activity result in the series on Rattus norvegicus [17] is listed as “Non-toxic”. Also, in the series on Squirrel monkey [7], the inhibition in vivo at 10 mg/kg amounted to 17%. Also, the “Ratio ED50” value in the series with Canis familiaris [6] is 10.
In the case of `COc1ccc(C2OC3(CCN(CCCC(=O)c4ccc(F)cc4)CC3)c3ccccc32)cc1` (configuration not stated), the ED50 was more than 40 mg/kg in the series on Rattus norvegicus [1]; 10.2 mg/kg in the series on Rattus norvegicus [2]; 0.16 mg/kg in the series with Canis familiaris [10]; 17.2 mg/kg in the series on Rattus norvegicus [3]; 3 mg/kg with Rattus norvegicus [5].
On to `O=C(CCCN1CCC2(CC1)OC(c1ccc(Cl)cc1)c1ccccc12)c1ccc(F)cc1` (configuration not stated), for which the ED50 in the series on Canis familiaris [10] was more than 10 mg/kg; with Rattus norvegicus [3], more than 20 mg/kg; in the series with Rattus norvegicus [11] it was more than 10 mg/kg. In addition, the Activity in the series with Rattus norvegicus [19] came to 47%.
With `CCCC(C)C1(CC)C(=O)N=C([O-])NC1=O.[Na+]` (configuration not stated) [PENTOBARBITAL SODIUM], the ED50 in the series with Rattus norvegicus [1] is 24.1 mg/kg; in the series on Rattus norvegicus [3], 23.7 mg/kg.
For `O=C(CCCN1CCC2(CC1)OC(c1ccccc1)c1ccc(F)cc12)c1ccc(F)cc1` (configuration not stated), the ED50 with Rattus norvegicus [1] was determined as 31.1 mg/kg; with Rattus norvegicus [2] it was 4.6 mg/kg; with Canis familiaris [10], 0.047 mg/kg; with Rattus norvegicus [3], 0.95 mg/kg; in the series on Rattus norvegicus [11], 2.7 mg/kg.
Turning to `CN(C)CCCN1c2ccccc2Sc2ccc(Cl)cc21` [CHLORPROMAZINE], the ED50 in the series with Rattus norvegicus [1] is 9 mg/kg; in the series on Rattus norvegicus [2] it was 2.2 mg/kg; in the series with Canis familiaris [10], 12.8 mg/kg; in the series with Rattus norvegicus [3] it was 5.2 mg/kg; in the series on Rattus norvegicus [21] it was 5.4 mg/kg; in the series on Rattus norvegicus [9], 1.7 mg/kg. In addition, the ED50 in the series with Rattus norvegicus [11] turned out to be 2.3 mg/kg; in the series with Rattus norvegicus [5] it was 7.5 mg/kg. In the series with Squirrel monkey [20], the inhibition in vivo at 2.5 mg/kg came to 11%. The inhibition in vivo at 5 mg/kg in the series with Squirrel monkey [15] was 54%.
`CN1C(=O)CN=C(c2ccccc2)c2cc(Cl)ccc21` [DIAZEPAM]: the ED50 in the series on Rattus norvegicus [1] is 24.5 mg/kg; in the series on Rattus norvegicus [3], 13.4 mg/kg.
In the case of `O=C(CCCN1CCC2(CC1)OC(c1ccccc1)c1ccccc12)c1ccc(F)cc1` (configuration not stated), the ED50 is more than 40 mg/kg in the series on Rattus norvegicus [1]; 2.6 mg/kg in the series with Rattus norvegicus [2]; 0.15 mg/kg in the series with Canis familiaris [10]; 8.6 mg/kg in the series on Rattus norvegicus [3]; 6.2 mg/kg in the series on Rattus norvegicus [11]; 4.8 mg/kg in the series on Rattus norvegicus [5].
For the compound `COc1ccc2c(c1)C(c1ccccc1)OC21CCN(CCCC(=O)c2ccc(F)cc2)CC1` (configuration not stated), the ED50 in the series with Rattus norvegicus [1] is more than 40 mg/kg; with Rattus norvegicus [2], 9.9 mg/kg; in the series with Canis familiaris [10], more than 1 mg/kg; in the series on Rattus norvegicus [3], 9.8 mg/kg; in the series on Rattus norvegicus [9], 6.97 mg/kg; with Rattus norvegicus [11], 9.5 mg/kg. In the series on Squirrel monkey [20], the inhibition in vivo at 2.5 mg/kg stood at 29%. Also, the Activity entry with Rattus norvegicus [17] was “Non-toxic”. Besides, in the series on Canis familiaris [6], the “Ratio ED50” value is listed as 10.
Regarding `O=C(CCCN1CCC(O)(c2ccc(Cl)cc2)CC1)c1ccc(F)cc1` [HALOPERIDOL], the median effective dose (ED50) with Rattus norvegicus [1] was 7.3 mg/kg; in the series on Rattus norvegicus [2], 0.1 mg/kg; in the series on Canis familiaris [10] it was 0.06 mg/kg; in the series with Rattus norvegicus [3], 0.53 mg/kg; with Rattus norvegicus [21], 0.2 mg/kg; in the series with Rattus norvegicus [9], 0.21 mg/kg. Also, the ED50 with Rattus norvegicus [11] stood at 0.35 mg/kg. In addition, in the series on Squirrel monkey [22], the inhibition in vivo at 0.75 mg/kg came out at 2%. Also, the inhibition in vivo at 1.25 mg/kg in the series filed under Rattus norvegicus [23] worked out at 50%. For the same compound, in the series with Squirrel monkey [24], the inhibition in vivo at 1 mg/kg amounted to 30%.
